Experimental data taken from patent US20030194750A1, “Methods for treatment of diseases where GSK 3-beta is desired, and methods to identify compounds usefule for that” (priority 2002, published 2003).

Target: T1, COX I (Ovis aries, UniProt P05979)
T1 construct: The COX was purified from ram seminal vesicles; from tissue; host or cells: ram seminal vesicles
T1 sequence (P05979 25-600): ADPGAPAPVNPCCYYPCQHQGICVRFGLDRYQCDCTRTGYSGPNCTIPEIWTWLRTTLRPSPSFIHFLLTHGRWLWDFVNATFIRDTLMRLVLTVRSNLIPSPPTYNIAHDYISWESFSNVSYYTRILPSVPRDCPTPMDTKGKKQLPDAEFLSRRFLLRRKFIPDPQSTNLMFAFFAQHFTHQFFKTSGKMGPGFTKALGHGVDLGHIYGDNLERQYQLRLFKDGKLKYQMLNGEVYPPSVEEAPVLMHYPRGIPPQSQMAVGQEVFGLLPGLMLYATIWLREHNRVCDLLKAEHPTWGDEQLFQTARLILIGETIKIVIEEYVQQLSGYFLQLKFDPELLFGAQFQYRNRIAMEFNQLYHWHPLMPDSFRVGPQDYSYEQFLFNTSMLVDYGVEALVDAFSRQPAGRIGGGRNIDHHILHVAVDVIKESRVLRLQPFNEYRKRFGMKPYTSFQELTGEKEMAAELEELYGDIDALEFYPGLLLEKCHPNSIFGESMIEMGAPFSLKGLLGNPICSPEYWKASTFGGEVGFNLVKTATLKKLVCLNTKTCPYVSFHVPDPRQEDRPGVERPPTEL
Test: Purified cyclooxygenase (COX) inhibition
Assay type: biochemical, ram
Settings: arachidonic acid 100 μM, 2.0 min, 37° C.
Experimental: COX catalyzes the formation of prostaglandins and thromboxane by the oxidative metabolism of arachidonic acid. The compound of Example 1 of this invention, as well as a positive control, (sulindac sulfide) were evaluated to determine whether they inhibited purified cyclooxygenase Type I (see Table 1 below).
The compounds useful in the practice of this invention were evaluated for inhibitory effects on purified COX. The COX was purified from ram seminal vesicles, as described by Boopathy, R. and Balasubramanian, J., 239:371-377, 1988. COX activity was assayed as described by Evans, A. T., et al., “Actions of Cannabis Constituents on Enzymes Of Arachidonate Metabolism Anti-Inflammatory Potential,” Biochem. Pharmacol., 36:2035-2037, 1987. Briefly, purified COX was incubated with arachidonic acid (100 μM) for 2.0 min at 37° C. in the presence or absence of test compounds. The assay was terminated by the addition of TCA, and COX activity was determined by absorbance at 530 nm.

## CC1=C(CC(=O)NCc2ccccc2)c2cc(F)ccc2/C1=C\c1ccncc1 [Example 1, (Z)-5-Fluoro-2-Methyl-(4-Pyridinylidene)-3-(N-Benzyl)-Indenylacetamide]
  inhibition at 100 µM: < 25%
